Test results from ChEMBL document CHEMBL1144201, “Design and synthesis of a series of meta aniline-based LFA-1 ICAM inhibitors” (Bioorg Med Chem Lett, 2008).

Columns and labels:
in vivo [1] = conditions: rat, 1 mg/kg
in vivo [2] = conditions: rat, 1 mg/kg; remark: listed apart in the source
in vivo [3] = conditions: rat, po, 1 mg/kg

Row | Compound | half-life (in vivo [1]) [min] | clearance (in vivo [2]) [mL/min/kg] | bioavailability (in vivo [3]) [%]
1 | O=C(/C=C/c1ccc(Sc2cccc(N[C@H]3CC[C@@H](C(=O)O)CC3)c2)c(C(F)(F)F)c1C(F)(F)F)N1CCOCC1 | 108 | 8.3 | 13
2 | Nc1cccc(Sc2ccc(/C=C/C(=O)N3CCOCC3)c(C(F)(F)F)c2C(F)(F)F)c1 | 270 |  | 27
3 | CC(C)N1CCC(Nc2cccc(Sc3ccc(/C=C/C(=O)N4CCOCC4)c(C(F)(F)F)c3C(F)(F)F)c2)CC1 | 420 |  | 32
